Laboratory results published in patent publication US20240246942A1, “KINASE INHIBITORS FOR THE TREATMENT OF NEURODEGENERATIVE DISEASES” (priority 2020, published 2024).

How the values were obtained:
Experiment in all cases: biochemical
[1] = target: T1, panel of 374 wild-type kinases (Homo sapiens, UniProt Q15349); conditions: read-out: % Enzyme Activity (relative to DMSO controls), kinase RSK3
T1 construct: purchased Reaction Biology Corporation

[2] = target: T2, panel of 374 wild-type kinases (Homo sapiens, UniProt P07948); conditions: read-out: % Enzyme Activity (relative to DMSO controls), LYN
T2 construct: purchased Reaction Biology Corporation

[3] = target: T3, panel of 374 wild-type kinases (Homo sapiens, UniProt P04049); conditions: read-out: % Enzyme Activity (relative to DMSO controls), kinase RAF1
T3 construct: purchased Reaction Biology Corporation

[4] = target: T4, panel of 374 wild-type kinases (Homo sapiens, UniProt Q9H093); conditions: read-out: % Enzyme Activity (relative to DMSO controls), kinase SNARK/NUAK2
T4 construct: purchased Reaction Biology Corporation
T4 sequence (Q9H093 1-628): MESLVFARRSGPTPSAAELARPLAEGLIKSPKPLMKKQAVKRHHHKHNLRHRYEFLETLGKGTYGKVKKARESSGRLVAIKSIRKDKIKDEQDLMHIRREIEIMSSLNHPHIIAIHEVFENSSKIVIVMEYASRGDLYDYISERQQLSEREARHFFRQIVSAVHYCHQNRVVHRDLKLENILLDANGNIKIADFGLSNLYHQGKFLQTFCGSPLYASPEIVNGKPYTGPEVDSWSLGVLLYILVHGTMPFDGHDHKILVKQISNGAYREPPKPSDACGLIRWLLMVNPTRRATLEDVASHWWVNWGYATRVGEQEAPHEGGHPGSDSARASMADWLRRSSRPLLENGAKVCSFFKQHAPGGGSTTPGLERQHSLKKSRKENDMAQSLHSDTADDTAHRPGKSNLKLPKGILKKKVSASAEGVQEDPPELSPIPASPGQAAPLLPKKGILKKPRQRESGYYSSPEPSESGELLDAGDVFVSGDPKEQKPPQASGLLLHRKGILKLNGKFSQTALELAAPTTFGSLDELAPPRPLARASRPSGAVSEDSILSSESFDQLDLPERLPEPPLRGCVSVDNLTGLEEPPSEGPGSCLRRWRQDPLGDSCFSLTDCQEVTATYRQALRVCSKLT

[5] = target: T5, panel of 374 wild-type kinases (Homo sapiens, UniProt P51957); conditions: read-out: % Enzyme Activity (relative to DMSO controls), NEK4
T5 construct: purchased Reaction Biology Corporation

[6] = target: T6, panel of 374 wild-type kinases (Homo sapiens, UniProt Q86UE8); conditions: read-out: % Enzyme Activity (relative to DMSO controls), kinase TLK2
T6 construct: purchased Reaction Biology Corporation

[7] = target: T7, panel of 374 wild-type kinases (Homo sapiens, UniProt O96013); conditions: read-out: % Enzyme Activity (relative to DMSO controls), kinase PAK4
T7 construct: purchased Reaction Biology Corporation

[8] = target: T8, panel of 374 wild-type kinases (Homo sapiens, UniProt O95819); conditions: read-out: % Enzyme Activity (relative to DMSO controls), HGK/MAP4K4
T8 construct: purchased Reaction Biology Corporation

[9] = target: T9, panel of 374 wild-type kinases (Homo sapiens, UniProt Q16832); conditions: read-out: % Enzyme Activity (relative to DMSO controls), DDR2
T9 construct: purchased Reaction Biology Corporation
T9 sequence (Q16832 22-855): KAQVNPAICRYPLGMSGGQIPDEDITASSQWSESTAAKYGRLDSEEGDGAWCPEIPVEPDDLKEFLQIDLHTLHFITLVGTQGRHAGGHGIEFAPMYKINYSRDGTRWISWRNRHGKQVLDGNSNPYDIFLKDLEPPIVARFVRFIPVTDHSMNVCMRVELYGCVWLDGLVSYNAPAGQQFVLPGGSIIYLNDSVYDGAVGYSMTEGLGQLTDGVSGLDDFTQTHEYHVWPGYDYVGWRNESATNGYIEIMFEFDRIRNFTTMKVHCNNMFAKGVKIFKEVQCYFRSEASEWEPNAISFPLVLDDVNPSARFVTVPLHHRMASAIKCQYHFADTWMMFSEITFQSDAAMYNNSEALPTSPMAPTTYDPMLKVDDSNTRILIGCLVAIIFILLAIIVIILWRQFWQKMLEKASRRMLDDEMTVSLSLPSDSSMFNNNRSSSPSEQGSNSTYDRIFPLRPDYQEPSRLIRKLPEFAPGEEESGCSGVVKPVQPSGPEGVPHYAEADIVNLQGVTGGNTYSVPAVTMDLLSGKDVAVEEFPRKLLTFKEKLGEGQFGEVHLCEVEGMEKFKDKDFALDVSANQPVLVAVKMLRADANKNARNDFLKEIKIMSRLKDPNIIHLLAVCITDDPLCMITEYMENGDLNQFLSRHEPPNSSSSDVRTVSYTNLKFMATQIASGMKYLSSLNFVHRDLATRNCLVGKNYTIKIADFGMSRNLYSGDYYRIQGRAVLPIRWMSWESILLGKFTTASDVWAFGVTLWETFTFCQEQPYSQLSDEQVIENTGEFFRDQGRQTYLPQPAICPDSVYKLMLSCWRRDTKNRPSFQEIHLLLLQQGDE

[10] = target: T10, panel of 374 wild-type kinases (Homo sapiens, UniProt Q9NQU5); conditions: read-out: % Enzyme Activity (relative to DMSO controls), kinase PAK6
T10 construct: purchased Reaction Biology Corporation

[11] = target: T11, panel of 374 wild-type kinases (Homo sapiens, UniProt P17612); conditions: read-out: % Enzyme Activity (relative to DMSO controls), kinase PKA
T11 construct: purchased Reaction Biology Corporation

[12] = target: T12, panel of 374 wild-type kinases (Homo sapiens, UniProt Q92918); conditions: read-out: % Enzyme Activity (relative to DMSO controls), HPK1/MAP4K1
T12 construct: purchased Reaction Biology Corporation

[13] = target: T13, panel of 374 wild-type kinases (Homo sapiens, UniProt Q9P289); conditions: read-out: % Enzyme Activity (relative to DMSO controls), MST4
T13 construct: purchased Reaction Biology Corporation
T13 sequence (Q9P289 whole entry): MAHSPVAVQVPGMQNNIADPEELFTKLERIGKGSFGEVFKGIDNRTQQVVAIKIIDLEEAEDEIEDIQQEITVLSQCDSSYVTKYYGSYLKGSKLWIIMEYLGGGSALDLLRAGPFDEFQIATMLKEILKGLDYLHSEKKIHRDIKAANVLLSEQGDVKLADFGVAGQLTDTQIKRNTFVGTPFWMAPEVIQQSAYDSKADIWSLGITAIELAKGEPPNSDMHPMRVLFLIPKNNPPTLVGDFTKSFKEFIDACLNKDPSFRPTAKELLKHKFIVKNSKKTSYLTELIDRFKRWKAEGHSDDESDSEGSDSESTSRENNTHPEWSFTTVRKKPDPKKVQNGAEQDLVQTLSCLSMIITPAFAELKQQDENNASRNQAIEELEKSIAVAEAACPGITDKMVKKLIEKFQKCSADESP

T1 sequence (Q15349 whole entry): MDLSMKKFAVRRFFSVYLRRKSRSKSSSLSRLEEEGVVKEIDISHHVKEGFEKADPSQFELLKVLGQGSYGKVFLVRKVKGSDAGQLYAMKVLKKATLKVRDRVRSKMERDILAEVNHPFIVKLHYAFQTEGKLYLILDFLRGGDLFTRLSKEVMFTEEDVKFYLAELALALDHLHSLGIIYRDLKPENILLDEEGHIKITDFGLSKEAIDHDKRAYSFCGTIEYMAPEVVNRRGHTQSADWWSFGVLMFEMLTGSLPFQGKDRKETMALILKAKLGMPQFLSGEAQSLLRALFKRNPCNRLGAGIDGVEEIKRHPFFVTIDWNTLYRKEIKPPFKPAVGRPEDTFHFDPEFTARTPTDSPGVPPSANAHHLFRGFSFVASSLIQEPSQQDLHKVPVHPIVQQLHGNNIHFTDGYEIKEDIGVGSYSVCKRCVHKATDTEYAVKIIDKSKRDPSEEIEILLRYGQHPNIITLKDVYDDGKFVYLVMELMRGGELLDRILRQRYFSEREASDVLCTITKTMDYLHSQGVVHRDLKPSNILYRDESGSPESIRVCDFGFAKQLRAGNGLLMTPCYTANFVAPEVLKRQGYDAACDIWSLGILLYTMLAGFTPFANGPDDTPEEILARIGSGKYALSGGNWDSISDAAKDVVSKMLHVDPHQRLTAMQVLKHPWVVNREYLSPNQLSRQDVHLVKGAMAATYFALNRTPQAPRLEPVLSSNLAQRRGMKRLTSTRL
T3 sequence (P04049 whole entry): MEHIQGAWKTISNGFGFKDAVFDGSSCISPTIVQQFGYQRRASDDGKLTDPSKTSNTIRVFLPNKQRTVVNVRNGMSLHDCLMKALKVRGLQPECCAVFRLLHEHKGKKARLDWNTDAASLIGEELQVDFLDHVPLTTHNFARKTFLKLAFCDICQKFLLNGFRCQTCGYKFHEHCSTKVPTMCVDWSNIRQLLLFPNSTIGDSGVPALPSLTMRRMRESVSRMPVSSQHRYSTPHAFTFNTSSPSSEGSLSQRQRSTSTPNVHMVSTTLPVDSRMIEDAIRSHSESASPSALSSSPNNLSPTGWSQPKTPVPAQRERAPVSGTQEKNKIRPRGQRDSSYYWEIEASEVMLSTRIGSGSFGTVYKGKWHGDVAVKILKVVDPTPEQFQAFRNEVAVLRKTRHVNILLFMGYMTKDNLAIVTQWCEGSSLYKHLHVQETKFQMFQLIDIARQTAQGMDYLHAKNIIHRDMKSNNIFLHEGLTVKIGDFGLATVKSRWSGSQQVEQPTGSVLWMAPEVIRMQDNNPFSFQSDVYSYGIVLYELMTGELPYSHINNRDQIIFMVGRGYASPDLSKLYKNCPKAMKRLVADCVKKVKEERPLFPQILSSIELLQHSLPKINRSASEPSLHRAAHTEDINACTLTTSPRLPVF
T6 sequence (Q86UE8 whole entry): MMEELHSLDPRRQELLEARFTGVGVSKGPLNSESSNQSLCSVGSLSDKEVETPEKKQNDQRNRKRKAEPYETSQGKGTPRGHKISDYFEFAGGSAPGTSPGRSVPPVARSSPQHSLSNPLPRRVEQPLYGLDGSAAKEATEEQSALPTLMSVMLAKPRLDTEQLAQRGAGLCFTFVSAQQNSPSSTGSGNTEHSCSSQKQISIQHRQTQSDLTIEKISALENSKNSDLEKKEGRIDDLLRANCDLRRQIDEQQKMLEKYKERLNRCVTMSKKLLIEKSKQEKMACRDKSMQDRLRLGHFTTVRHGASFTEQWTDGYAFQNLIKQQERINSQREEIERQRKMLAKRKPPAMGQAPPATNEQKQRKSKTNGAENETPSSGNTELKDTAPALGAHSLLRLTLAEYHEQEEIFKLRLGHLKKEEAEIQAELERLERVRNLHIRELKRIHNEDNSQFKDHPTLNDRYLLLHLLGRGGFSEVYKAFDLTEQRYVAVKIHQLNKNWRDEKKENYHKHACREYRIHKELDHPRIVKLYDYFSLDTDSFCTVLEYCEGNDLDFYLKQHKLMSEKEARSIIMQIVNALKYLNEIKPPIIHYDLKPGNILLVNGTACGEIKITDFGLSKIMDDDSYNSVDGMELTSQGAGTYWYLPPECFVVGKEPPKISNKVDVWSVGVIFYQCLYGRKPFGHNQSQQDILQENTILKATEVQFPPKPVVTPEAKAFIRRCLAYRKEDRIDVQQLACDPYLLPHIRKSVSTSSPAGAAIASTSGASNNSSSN
T7 sequence (O96013 whole entry): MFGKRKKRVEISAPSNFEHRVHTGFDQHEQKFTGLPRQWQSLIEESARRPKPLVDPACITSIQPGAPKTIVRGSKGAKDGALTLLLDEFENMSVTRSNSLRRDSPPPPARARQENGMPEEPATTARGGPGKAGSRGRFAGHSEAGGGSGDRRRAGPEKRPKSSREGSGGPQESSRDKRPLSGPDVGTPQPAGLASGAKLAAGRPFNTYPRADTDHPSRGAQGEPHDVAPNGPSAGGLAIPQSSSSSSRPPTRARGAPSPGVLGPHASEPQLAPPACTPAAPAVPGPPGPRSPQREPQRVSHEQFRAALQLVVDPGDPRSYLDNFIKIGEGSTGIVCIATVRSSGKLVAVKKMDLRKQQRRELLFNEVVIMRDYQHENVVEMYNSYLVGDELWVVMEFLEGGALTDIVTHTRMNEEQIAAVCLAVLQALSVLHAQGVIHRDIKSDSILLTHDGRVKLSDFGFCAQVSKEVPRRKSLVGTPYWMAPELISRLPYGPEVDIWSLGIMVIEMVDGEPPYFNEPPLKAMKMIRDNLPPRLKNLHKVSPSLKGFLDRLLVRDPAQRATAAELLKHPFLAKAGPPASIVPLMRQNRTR
T12 sequence (Q92918 whole entry): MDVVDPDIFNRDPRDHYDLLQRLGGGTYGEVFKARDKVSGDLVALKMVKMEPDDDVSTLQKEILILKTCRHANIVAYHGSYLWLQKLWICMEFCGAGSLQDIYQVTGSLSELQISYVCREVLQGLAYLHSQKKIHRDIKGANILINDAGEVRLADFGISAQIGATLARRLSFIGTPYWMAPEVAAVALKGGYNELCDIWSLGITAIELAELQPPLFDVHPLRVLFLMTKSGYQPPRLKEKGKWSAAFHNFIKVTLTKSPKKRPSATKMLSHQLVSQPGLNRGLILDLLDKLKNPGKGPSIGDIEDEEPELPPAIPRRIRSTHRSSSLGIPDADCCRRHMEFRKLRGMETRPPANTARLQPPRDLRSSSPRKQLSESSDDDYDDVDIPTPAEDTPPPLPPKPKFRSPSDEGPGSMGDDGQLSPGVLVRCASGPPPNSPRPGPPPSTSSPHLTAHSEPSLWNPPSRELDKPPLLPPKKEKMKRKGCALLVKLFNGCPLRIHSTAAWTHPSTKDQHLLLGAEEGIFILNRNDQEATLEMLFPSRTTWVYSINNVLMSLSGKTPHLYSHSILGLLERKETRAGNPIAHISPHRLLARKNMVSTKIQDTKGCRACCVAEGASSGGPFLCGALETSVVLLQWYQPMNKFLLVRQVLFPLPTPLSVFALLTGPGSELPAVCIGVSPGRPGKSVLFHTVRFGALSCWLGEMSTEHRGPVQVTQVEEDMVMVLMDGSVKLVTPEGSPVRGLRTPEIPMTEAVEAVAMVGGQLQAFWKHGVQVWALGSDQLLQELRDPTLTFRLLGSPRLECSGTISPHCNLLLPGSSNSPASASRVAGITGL
T5 sequence (P51957 whole entry): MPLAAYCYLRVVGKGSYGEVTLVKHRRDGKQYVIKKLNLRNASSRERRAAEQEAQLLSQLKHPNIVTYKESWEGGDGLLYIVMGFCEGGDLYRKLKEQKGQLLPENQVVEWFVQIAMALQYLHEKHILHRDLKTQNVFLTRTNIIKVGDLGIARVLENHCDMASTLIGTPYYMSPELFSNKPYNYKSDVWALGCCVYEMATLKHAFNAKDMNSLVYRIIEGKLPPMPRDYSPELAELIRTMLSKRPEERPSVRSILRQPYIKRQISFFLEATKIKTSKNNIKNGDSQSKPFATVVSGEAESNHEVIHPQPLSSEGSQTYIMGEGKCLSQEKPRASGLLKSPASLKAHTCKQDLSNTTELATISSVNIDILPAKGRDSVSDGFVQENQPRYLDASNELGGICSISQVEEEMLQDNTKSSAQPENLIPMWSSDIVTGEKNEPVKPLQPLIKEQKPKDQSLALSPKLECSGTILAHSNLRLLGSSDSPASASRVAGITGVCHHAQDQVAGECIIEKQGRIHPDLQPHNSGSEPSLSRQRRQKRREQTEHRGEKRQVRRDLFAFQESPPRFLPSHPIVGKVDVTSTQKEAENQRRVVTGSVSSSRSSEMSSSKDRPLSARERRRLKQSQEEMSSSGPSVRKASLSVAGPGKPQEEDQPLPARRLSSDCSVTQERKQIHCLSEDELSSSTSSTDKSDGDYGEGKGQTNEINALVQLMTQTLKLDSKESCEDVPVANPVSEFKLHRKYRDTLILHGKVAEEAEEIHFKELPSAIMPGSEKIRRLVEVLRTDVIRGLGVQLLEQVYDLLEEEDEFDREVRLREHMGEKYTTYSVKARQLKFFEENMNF

SMILES | remaining activity at 5 µM [1] [%] | remaining activity at 5 µM [2] [%] | remaining activity at 5 µM [3] [%] | remaining activity at 5 µM [4] [%] | remaining activity at 5 µM [5] [%] | remaining activity at 5 µM [6] [%] | remaining activity at 5 µM [7] [%] | remaining activity at 5 µM [8] [%] | remaining activity at 5 µM [9] [%] | remaining activity at 5 µM [10] [%] | remaining activity at 5 µM [11] [%] | remaining activity at 5 µM [12] [%] | remaining activity at 5 µM [13] [%] | further results
O=C(Nc1cnn(-c2csc(C(=O)NC3COC3)c2)c1)Nc1ccccc1Cl [Compound 17, 4-(4-(3-(2-chlorophenyl)ureido)-1H-pyrazol-1-yl)-N-(oxetan-3-yl)thiophene-2-carboxamide] | 103 | 96.8 | 87 | 99.8 | 109 | 99.1 | 98.9 | 81.1 | 99.8 | 131 | 99.8 | 132 | 98.3 | 
Cc1sc(C(=O)NC2COC2)cc1-n1cc(NC(=O)Nc2c(F)cccc2Cl)cn1 [Compound 27, 4-(4-(3-(2-chloro-6-fluorophenyl)ureido)-1H-pyrazol-1-yl)-5-methyl-N-(oxetan-3-yl)thiophene-2-carboxamide] |  |  |  |  |  |  |  |  |  |  |  |  |  | remaining activity at 10 µM ([1]; 10 uM): 100%; remaining activity at 10 µM ([2]; 10 uM): 106%; remaining activity at 10 µM ([3]; 10 uM): 92.6%; remaining activity at 10 µM ([4]; 10 uM): 112%; remaining activity at 10 µM ([5]; 10 uM): 75.5%; remaining activity at 10 µM ([6]; 10 uM): 97.2%; remaining activity at 10 µM ([7]; 10 uM): 106%; remaining activity at 10 µM ([8]; 10 uM): 93.4%; remaining activity at 10 µM ([9]; 10 uM): 111%; remaining activity at 10 µM ([10]; 10 uM): 99.9%; remaining activity at 10 µM ([11]; 10 uM): 94.5%; remaining activity at 10 µM ([12]; 10 uM): 99.2%; remaining activity at 10 µM ([13]; 10 uM): 72.4%
O=C(Nc1cnn(-c2csc(C(=O)NC3COC3)c2)c1)Nc1c(F)cccc1Cl [Compound 25, 4-(4-(3-(2-chloro-6-fluorophenyl)ureido)-1H-pyrazol-1-yl)-N-(oxetan-3-yl)thiophene-2-carboxamide] | 90.1 | 95.3 | 92.5 | 97.8 | 90.8 | 109 | 107 | 90.4 | 96.6 | 92.9 | 108 | 92.7 | 71.4 | 
